Key:
[1] = tested on: breast MCF-7 cancer cell line; experiment: MTT cytotoxicity assay against breast MCF-7 cancer cell line; format: cell-based; conditions: Homo sapiens, MCF7, 24 h treatment, mean ± SD, n = 3 experiments, read-out: IC50 (μM) MCF-7, in vitro cytotoxic activity
Procedure: The effect of the prepared benzo[g]quinoxaline derivatives 2–9 on the viability of breast MCF-7 cancer cell line was studied using MTT assay. The cytotoxicity was assessed using Dox as positive reference drug.
Antitumor activity of the newly prepared benzo[g]quinoxaline derivatives 2–9 were carried out against breast MCF-7 cancer cell line using MTT assay method. Cells at density of 1 × 10^4 were seeded in 96-well plate at 37 °C for 48 h under 5% CO2. After incubation, the cells were treated with different concentration of the prepared molecules and incubated for 24 h. MTT dye was added at the end of 24 h of drug treatment and incubated for 4 h at 37 °C. 100 µL of dimethyl sulphoxide was added to each well to dissolve the purple formazan formed. The color intensity of the formazan product, which represents the growth condition of the cells, was quantified using an ELISA plate reader at 570 nm. The experimental conditions were carried out with at least three replicates and the experiments were repeated at least three times.

[2] = tested on: MCF-7 cells; experiment: Cell cycle analysis by DNA flow cytometry (PI staining); format: cell-based; conditions: MCF-7, compound at IC50 (2.89 µM), 48 h; untreated control 2.41%
Procedure: Compound 3 was tested at its IC50 concentration dose value.
MCF-7 cells (2 × 10^5/well) were harvested and washed twice in PBS. After that, cells were incubated at 37 °C and 5% CO2. The medium was replaced with (DMSO 1% v/v) containing the tested compound, then incubated for 48 h, washed twice in PBS, fixed with 70% ethanol, rinsed again with PBS, and then stained with DNA fluorochrome PI for 15 min at 37 °C. DNA content was analyzed by flow cytometry on a FACS Calibur flow cytometer (Becton and Dickinson, Heidelberg, Germany).
Figure 4 (A) Graphical representation of percentages of cells in pre-G1, G1, G2/M, and S cell cycle phase in MCF-7 cells treated with compound 3 (2.89 µM) for 48 h. (B) Effect of compound 3 (2.89 µM) on cell cycle distribution in MCF-7 cells for 48 h and analyzed by flow cytometry after staining with DNA fluorochrome propidium iodide; most of the compound 3 treated cells were in pre-G1 phase (apoptosis). Data are expressed as the mean ± SD (n = 3 experiments) and statistical comparisons were carried out using one-way analysis of variance (ANOVA) followed by Tukey’s multiple comparison test (*** p < 0.001). ***-Highly significant. […]

[3] = tested on: MCF-7 cells; experiment: Annexin V-FITC/PI apoptosis staining assay (flow cytometry); format: cell-based; conditions: MCF-7, compound at IC50 concentration, 48 h
Procedure: Apoptosis staining assay was performed to detect the effect of compound 3 on the percentage of early and late apoptosis in the breast MCF-7 cancer cell line. […] Therefore, compound 3 can be considered an apoptosis inducer in the breast MCF-7 cell line.
Apoptosis in MCF-7 cells was investigated using fluorescent Annexin V-FITC/PI detection kit by flow cytometry assay. Briefly, MCF-7 cells (2 × 10^5) after incubation for 12 h. Cells were treated with compound 3 at its IC50 concentration for 48 h, then the cells were harvested and stained with Annexin V-FITC/PI dye for 15 min in the dark at 37 °C. Flow cytometry analyses were performed using FACS Calibur flow cytometer (Becton and Dickinson, Heidelberg, Germany).
Figure 5 (A) Graphical representation of the effect of compound 3 on induction of apoptosis in MCF-7 cell line. (B) Effect of compound 3 on induction of apoptosis in MCF-7 cell line. Data are expressed as the mean ± SD (n = 3 experiments) and statistical comparisons were carried out using one-way analysis of variance (ANOVA) followed by Tukey’s multiple comparison test (** p < 0.01, and *** p < 0.001). […] The Comp 3 values are given in the order upper left, upper right, lower right, with no measure name. / The Control MCF-7 plot prints 1.51%, 0.13% and 0.77%. These are left out because the untreated control is not a substance.

[4] = tested on: Bax; experiment: ELISA measurement of Bax level in MCF-7 cells; format: cell-based; conditions: MCF-7 cells treated at IC50 (2.89 µM)
Procedure: (§1) In order to investigate the molecular pathway involved in apoptosis, compound 3 was screened for its ability to activate pro-apoptotic protein; Bax and downregulate anti-apoptotic protein; Bcl2 [31]. The MCF-7 cancer cell line was treated with compound 3 at its IC50 value (µM) and the level of expression of proteins involved in apoptosis was quantized using ELISA assay. […] Therefore, it can be concluded that compound 3 can induce the intrinsic pathway of apoptosis by activation of Bax and downregulation of Bcl2.
(§2) The levels of the apoptotic marker Bax, Bcl-2, and Fas/Fas-l were assessed using ELISA kit. The procedure of the used kits was completed according to the manufacturer’s instructions. Briefly, cell lysates were prepared from control and MCF-7 cells (2.5 × 10^5) treated with IC50 concentration of compound 3. Then, equal amounts of cell lysates were loaded then probed with specific antibodies. The samples were measured at 450 nm in ROBONEK P2000 ELISA reader. All experiments were performed in duplicate.
(§3) Figure 6 Effect of compound 3 on apoptosis related proteins, Bax, Bcl2, and Fas/Fas-L in MCF-7 cells. […] Data was expressed as mean ± SD (n = 3 experiments) and statistical comparisons were carried out using one-way analysis of variance (ANOVA) followed by Tukey’s multiple comparison test (*** p < 0.001).

[5] = tested on: Bcl2; experiment: ELISA measurement of Bcl2 level in MCF-7 cells; format: cell-based; conditions: MCF-7 cells treated at IC50 (2.89 µM)
Procedure: as §1, §2, §3

[6] = biological target: T1, topoisomerase IIβ (Homo sapiens, UniProt Q02880); experiment: Topoisomerase IIβ enzyme inhibition assay (Human DNA topo IIβ ELISA Kit # MBS942146); format: biochemical
T1 construct: purchased MBS942146
Procedure: To obtain a further insight into the mechanism of cell proliferation inhibition activity, benzo[g]quinoxaline molecule 3 was investigated for topoisomerase IIβ (topo IIβ) inhibitory activity using the Human DNA topo IIβ ELISA Kit # MBS942146.
Compound 3 and Dox were evaluated against topoisomerase IIβ for their inhibitory concentration (µM) using four doses concentration according to manufacturer’s instructions.
Figure 3 Graphical representation for comparison of topo IIβ IC50 of compound 3 and Dox; topo II was performed using four doses protocol for compound 3 and Dox, and the concentration that induced 50% maximum inhibition of topo II was determined from sigmoidal dose–response. Data are expressed as the mean ± SD (n = 3 experiments) and statistical comparisons were carried out using one-way analysis of variance (ANOVA) followed by Tukey’s multiple comparison test (** p < 0.01). **-Significant.

T1 sequence (Q02880 whole entry): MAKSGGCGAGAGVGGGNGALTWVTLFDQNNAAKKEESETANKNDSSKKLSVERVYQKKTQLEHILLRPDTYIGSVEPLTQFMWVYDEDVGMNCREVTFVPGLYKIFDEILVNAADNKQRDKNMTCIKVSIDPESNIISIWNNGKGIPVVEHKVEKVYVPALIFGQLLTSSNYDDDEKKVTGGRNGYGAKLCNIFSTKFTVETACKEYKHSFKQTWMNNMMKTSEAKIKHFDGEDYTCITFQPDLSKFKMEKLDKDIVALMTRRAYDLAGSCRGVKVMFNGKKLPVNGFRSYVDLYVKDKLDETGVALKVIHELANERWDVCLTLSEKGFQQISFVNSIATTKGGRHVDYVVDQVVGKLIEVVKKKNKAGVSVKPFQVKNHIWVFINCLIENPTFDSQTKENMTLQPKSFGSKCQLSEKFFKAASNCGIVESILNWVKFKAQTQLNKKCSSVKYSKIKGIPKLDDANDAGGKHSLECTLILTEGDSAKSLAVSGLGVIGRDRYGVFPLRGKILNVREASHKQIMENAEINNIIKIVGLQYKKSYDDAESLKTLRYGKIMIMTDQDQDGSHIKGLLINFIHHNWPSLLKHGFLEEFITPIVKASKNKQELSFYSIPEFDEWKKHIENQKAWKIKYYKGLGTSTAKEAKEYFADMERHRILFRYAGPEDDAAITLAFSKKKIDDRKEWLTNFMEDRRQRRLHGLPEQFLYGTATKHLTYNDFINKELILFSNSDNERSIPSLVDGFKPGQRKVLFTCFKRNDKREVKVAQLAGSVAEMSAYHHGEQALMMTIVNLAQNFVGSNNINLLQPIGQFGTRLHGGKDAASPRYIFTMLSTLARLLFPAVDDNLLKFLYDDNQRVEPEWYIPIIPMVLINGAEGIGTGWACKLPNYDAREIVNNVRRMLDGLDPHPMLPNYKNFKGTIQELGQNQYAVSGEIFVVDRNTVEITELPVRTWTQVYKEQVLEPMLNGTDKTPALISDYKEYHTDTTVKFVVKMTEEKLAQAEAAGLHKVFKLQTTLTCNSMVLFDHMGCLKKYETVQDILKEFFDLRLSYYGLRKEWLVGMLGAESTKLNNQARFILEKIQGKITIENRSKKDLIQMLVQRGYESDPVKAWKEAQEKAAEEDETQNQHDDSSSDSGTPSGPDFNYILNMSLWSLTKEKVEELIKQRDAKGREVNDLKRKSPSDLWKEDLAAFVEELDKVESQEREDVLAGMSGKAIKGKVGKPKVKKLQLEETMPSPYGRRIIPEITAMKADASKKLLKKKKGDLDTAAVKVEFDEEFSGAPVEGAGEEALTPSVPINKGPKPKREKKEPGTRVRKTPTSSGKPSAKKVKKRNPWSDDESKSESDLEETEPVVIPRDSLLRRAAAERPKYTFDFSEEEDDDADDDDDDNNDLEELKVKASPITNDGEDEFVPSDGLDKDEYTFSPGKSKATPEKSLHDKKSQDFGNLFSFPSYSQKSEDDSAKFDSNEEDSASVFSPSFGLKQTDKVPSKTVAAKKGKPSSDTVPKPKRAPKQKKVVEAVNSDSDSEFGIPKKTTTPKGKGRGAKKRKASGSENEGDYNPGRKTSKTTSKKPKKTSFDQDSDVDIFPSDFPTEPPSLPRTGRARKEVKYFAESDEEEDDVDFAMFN

melting point	Compound	IC50 [1]	further results
195 to 197 °C	Clc1ccc(C2=Nc3cc4ccccc4cc3NC2)cc1 [Compound 2, 3-(4-Chlorophenyl)-1,2-dihydrobenzo[g]quinoxaline]	17.2 ± 0.69 µM	
171 to 173 °C	CC(=O)N1C=C(c2ccc(Cl)cc2)Nc2cc3ccccc3cc21 [Compound 4, 1-(3-(4-Chlorophenyl)benzo[g]quinoxalin-1(4H)-yl)ethanone]	16.2 ± 0.58 µM	
146 to 148 °C	CCOC(=O)C(C#N)=C(c1ccc(O)c(OC)c1)N1C=C(c2ccc(Cl)cc2)Nc2cc3ccccc3cc21 [Compound 5, Ethyl 3-(3-(4-Chlorophenyl)benzo[g]quinoxalin-1(4H)-yl)-2-cyano-3-(4-hydroxy-3-methoxyphenyl)acrylate]	32.1 ± 1.11 µM	

More lines, now with the values behind:

Compound	melting point	IC50 [1]	further results
Clc1ccc(-c2cnc3cc4ccccc4cc3n2)cc1 [Compound 3, 2-(4-Chlorophenyl)benzo[g]quinoxaline]	168 to 170 °C	2.89 ± 0.11 µM	percentage of cells at the pre-G1 phase [2]: 38.24%; apoptosis percentage at late stage (upper right quadrant) ([3]; untreated control 0.13%): 21.38%; apoptosis percentage at the early stage (lower right quadrant) ([3]; untreated control 0.77%): 1.59%; increase of Bax expression compared with untreated control [4]: 3.89 fold; downregulation of Bcl2 compared with untreated control [5]: 4.35 fold
Nc1c(NCC(=O)c2ccc(Cl)cc2)c(Br)c2ccccc2c1Br [Compound 8, 2-(3-Amino-1,4-dibromonaphthalen-2-ylamino)-1-(4-chlorophenyl)ethanone]	225 to 227 °C		
CC(=O)N1CC(c2ccc(Cl)cc2)=Nc2c1c(Br)c1ccccc1c2Br [Compound 9, 1-(5,10-Dibromo-3-(4-chlorophenyl)benzo[g]quinoxalin-1(2H)-yl)ethanone]	205 to 207 °C	8.84 ± 0.36 µM	
COc1cccc2c1C(=O)c1c(O)c3c(c(O)c1C2=O)C[C@@](O)(C(=O)CO)C[C@@H]3O[C@H]1C[C@H](N)[C@H](O)[C@H](C)O1 [Dox, Doxorubicin, reference compound]		2.01 ± 0.01 µM	IC50 [6]: 3.31 µM
